Source: patent US9352015B2, “Antimicrobial peptides” (priority 2009, dated 2016)
Values after ≈ are worked out from the molar mass of the structure shown.

What was measured:
[1] = RP-HPLC temperature profiling (peptide self-association parameter PA); type: physicochemical; details: enantiomer pairs of V681 analogs, 5° C. to 80° C., relative to peptide C
Method: Temperature profiling analyses were performed on the same column in 3° C. increments, from 5° C. to 80° C., using a linear AB gradient of 0.5% acetonitrile/min, as described previously (30, 53, 92, 93).
Peptide self-association (i.e., the ability to oligomerize/dimerize) in aqueous solution is a very important parameter for antimicrobial activity (53, 92, 93). Without wishing to be bound by any particular theory, the present inventors postulated that monomeric random-coil antimicrobial peptides are best suited to pass through the capsule and cell wall of microorganisms prior to penetration into the cytoplasmic membrane, induction of α-helical structure and disruption of membrane structure to kill target cells (93). Thus, if the self-association ability of a peptide in aqueous media is too strong (e.g., forming stable folded dimers through interaction of their non-polar faces) this could decrease the ability of the peptide to dissociate to monomer, in addition oligomerization of the peptide can prevent it from effectively passing through the capsule and cell wall to reach the membrane. The ability of the peptides in the present study to self-associate was determined by the technique of RP-HPLC temperature profiling at pH 2 (29, 30, 38). The reason pH 2 is used to determine self-association of cationic AMPs is that highly positively charged peptides are frequently not eluted from reversed-phase columns at pH 7 due to non-specific binding to negatively charged silanols on the column matrix. This is not a problem at pH 2 since the silanols are protonated (i.e., neutral) and non-specific electrostatic interactions are eliminated. At pH 2, the interactions between the peptide and the reversed-phase matrix involve ideal retention behavior, i.e., only hydrophobic interactions between the preferred binding domain (nonpolar face) of the amphipathic molecule and the hydrophobic surface of the column matrix are present (39). […] Control peptide C is a monomeric random coil peptide in both aqueous and hydrophobic media; thus, its linear decrease in peptide retention behavior with increasing temperature within the range of 5° C. to 80° C. represents only the general effects of temperature due to greater solute diffusivity and enhanced mass transfer between the stationary and mobile phase at higher temperatures (55). To allow for these general temperature effects, the data for the control peptide was subtracted from each temperature profile as shown in FIG. 2B. Thus, the peptide self-association parameter, PA, represents the maximum change in peptide retention time relative to the random coil peptide C. Note that the higher the PA value, the greater the self-association.

[2] = RP-HPLC retention as measure of overall peptide hydrophobicity; type: physicochemical; details: 80° C., polar face substitution
Method: Crude and purified peptides were analyzed on an Agilent 1100 series liquid chromatograph (Little Falls, Del.). Runs were performed on a Zorbax 300 SB-C8 column (150×2.1 mm I.D.; 5 μm particle size, 300 Å pore size) from Agilent Technologies using linear AB gradient (1% acetonitrile/min) and a flow rate of 0.25 ml/min, where eluant A was 0.2% aqueous TFA, pH 2 and eluant B was 0.2% TFA in acetonitrile.

Acinetobacter baumannii = type: cell-based; details: for Acinetobacter baumannii MICGM: geometric mean, 11 different isolates, 24 hours at 37° C.
Method: (§1) Minimal inhibitory concentrations (MICs) are determined using a standard microtiter dilution method, with 3 sets of determinations, in LB (Luria-Bertani) no-salt medium (10 g of tryptone and 5 g of yeast extract per liter). In some cases, Mueller Hinton (MH) medium or Brain Heart Infusion (BHI) medium is used.
(§2) Briefly, cells were grown overnight at 37° C. in LB and diluted in the same medium. Serial dilutions of the peptides are added to the microtiter plates in a volume of 100 μl followed by 10 μl of bacteria to give a final inoculum of 5×10^5 colony-forming units/ml. Plates are incubated at 37° C. for 24 hours and MICs determined as the lowest peptide concentration that inhibited growth. Alternatively, minimal inhibitory concentrations are determined using a standard microtiter dilution method in a Mueller-Hinton (MH) medium. Briefly, cells are grown overnight at 37° C. in MH broth and diluted in the same medium. In some cases, serial dilutions of the peptides are added to the microtiter plates in a volume of 100 μl followed by 10 μl of bacteria to give a final inoculum of 1×10^5 colony-forming units/ml. Plates are incubated at 37° C. for 24 hours and MICs are determined as the lowest peptide concentration that inhibited growth.
The biological activities of these six peptide analogs was determined against 11 clinical isolated of Acinetobacter baumannii (Table 9). Please note that the activities are reported in micromolar rather than microgram/ml. This allows a direct comparison on a molar basis with the effectiveness of molecules of different molecular weights whether peptides disclosed herein or antibiotics which in general are smaller in molecular mass. […] These are the highest antimicrobial activities observed in studies of antimicrobial peptides derived by modifying the peptide sequence of SEQ ID NO:24 (D1). D22 has the best hemolytic activity of the six analogs (D17-D22) and a therapeutic index of […] compared to […] for D1 (Table 9). D22 has no apparent advantage over D1 as determined in these experiments.

[3] = Hemolytic activity against human erythrocytes (HC50 / MHC, microtiter dilution); type: cell-based; details: human, 1% human erythrocytes, pH 7.4
Method: Hemoglobin release was determined spectrophotometrically at 570 nm. The hemolytic activity was determined as the peptide concentration that caused 50% hemolysis of erythrocytes after 18 h (HC50). […] HC50 was determined by a plot of peptide concentration versus percent lysis.

[4] = system: Methicillin Resistant Staphylococcus aureus (MRSA) and Staphylococcus aureus; type: cell-based
Method: as §1, §2
Identification of Antimicrobial Peptides for Gram-positive Bacteria. In a manner similar to testing against gram-negative bacteria, experiments were carried out to screen the 14 peptides used to identify antimicrobial peptides with significant activity against A. baumanii shown above against 20 different clinical isolates of Methicillin Resistant Staphylococcus aureus (MRSA) and Staphylococcus aureus.

Pseudomonas aeruginosa = details: geometric mean, 6 different isolates, 24 hours at 37° C.

Compound	PA (peptide self-association parameter) [1]	Change in hydrophobicity (retention time) relative to PVL [2]	MIC GM (geometric mean) (Acinetobacter baumannii) [µM]	Acinetobacter baumannii MICGM (Acinetobacter baumannii) [µM]	HC50 at 18 h [3] [µM]	MIC GM (geometric mean) [4] [µM]	Pseudomonas aeruginosa MICGM (Pseudomonas aeruginosa) [µM]
D-V681: D-enantiomer of V681 (KWKSFLKTFKSAVKTVLHTALKAISS; all D-amino acids)	7.2						
D-NAL: enantiomer of NAD, SEQ ID NO:25 (KWKSFLKTFKSAAKTVLHTALKAISS; not fully specified; D-amino acids)	4.1						
PAL: V681 with L-Ala at position 11, SEQ ID NO:14 (KWKSFLKTFKAAVKTVLHTALKAISS)		+0.45 min					
CC[C@@H](C)[C@@H](NC(=O)[C@@H](CC(C)C)NC(=O)[C@@H](CCCCN)NC(=O)[C@@H](CC(C)C)NC(=O)[C@@H](CC(C)C)NC(=O)[C@H](NC(=O)[C@@H](CCCCN)NC(=O)[C@@H](CC(C)C)NC(=O)[C@@H](CCCCN)NC(=O)[C@@H](CCCCN)NC(=O)[C@@H](CCCCN)NC(=O)[C@@H](CCCCN)NC(=O)[C@@H](CC(C)C)NC(=O)[C@@H](CCCCN)NC(=O)[C@@H](CO)NC(=O)[C@@H](Cc1ccccc1)NC(=O)[C@H](NC(=O)[C@@H](CCCCN)NC(=O)[C@@H](CC(C)C)NC(=O)[C@@H](Cc1ccccc1)NC(=O)[C@@H](CO)NC(=O)[C@@H](CCCCN)NC(=O)[C@@H](Cc1c[nH]c2ccccc12)NC(=O)[C@@H](CCCCN)NC(C)=O)[C@H](C)O)[C@H](C)O)C(=O)N[C@H](CO)C(=O)N[C@H](CCCCN)C(N)=O [Peptide D12, Ac-KWKSFLKTFSKLKKKKLKTLLKLISK-amide]			1.9 (≈ 6.09 µg/mL)	1.9	18.3	5.2 (≈ 16.7 µg/mL)	3.9
PKL: V681 with L-Lys at position 11, SEQ ID NO:17 (KWKSFLKTFKKAVKTVLHTALKAISS)		-2.29 min					
CC[C@@H](C)[C@@H](NC(=O)[C@@H](C)NC(=O)[C@@H](CCCCN)NC(=O)[C@@H](CC(C)C)NC(=O)[C@@H](CC(C)C)NC(=O)[C@H](NC(=O)[C@@H](CCCCN)NC(=O)[C@@H](CC(C)C)NC(=O)[C@@H](CCCCN)NC(=O)[C@@H](CCCCN)NC(=O)[C@@H](CCCCN)NC(=O)[C@@H](CCCCN)NC(=O)[C@@H](CC(C)C)NC(=O)[C@@H](CCCCN)NC(=O)[C@@H](CO)NC(=O)[C@@H](Cc1ccccc1)NC(=O)[C@H](NC(=O)[C@@H](CCCCN)NC(=O)[C@@H](CC(C)C)NC(=O)[C@@H](Cc1ccccc1)NC(=O)[C@@H](CO)NC(=O)[C@@H](CCCCN)NC(=O)[C@@H](Cc1c[nH]c2ccccc12)NC(=O)[C@@H](CCCCN)NC(C)=O)[C@H](C)O)[C@H](C)O)C(=O)N[C@H](CO)C(=O)N[C@H](CCCCN)C(N)=O [Peptide D13, Ac-KWKSFLKTFSKLKKKKLKTLLKAISK-amide]			1.0 (≈ 3.16 µg/mL)	1	106	8.6 (≈ 27.2 µg/mL)	2.5
